Test results: patent publication US4533654A, “Urotensin peptides” (The Salk Institute For Biological Studies, priority 1984, dated 1985)
Where two headings read alike, the source gives them in different places.

Legend:
[1] = test system: blood pressure; details: mammals; reported in the literature; cited from earlier work
[2] = test system: secretion of ACTH and β-endorphin; details: reported in the literature; cited from earlier work
[3] = test system: mesenteric vascular bed; assay: Blood pressure and vascular dilatation in the monkey; assay type: in vivo; details: for effect on blood pressure: appears due solely to dilatation of the mesenteric vascular bed
[4] = test system: teleost fish pituitaries; assay: Secretion of ACTH by teleost fish pituitaries
Protocol: (§1) The urotensin peptides from Example II and III are examined for effects on the secretion of ACTH and β-endorphin in vitro and also examined in vivo. […] UI activity of the peptides was measured by the isolated rat hind limb assay, Lederis, K. et al. "Effects and Assay of Urotensin I on the Perfused Hind Limb of the Rat." Gen. Comp. Endocrinol., 24:10-16, 1974. In vivo hypotensive activity of extracted peptides was measured in anaesthetized rats, Lederis, K. and Medakovic, M. "Pharmacological Observations on the Hypotensive Action of Extracts of Teleost Fish Urophyses (Urotensin I) in the Rat." Br. J. Pharmacol. 51:315-324, 1974, and in anaesthetized dogs, MacCannell and Lederis, "Dilatation of the Mesenteric Vascular Bed of the Dog Produced by a Peptide, Urotensin I." J. Pharm. Exp. Ther. 203:38-46, 1977.

[5] = Biological activity (test not specified)
[6] = test system: cultured rat pituitary cells; assay: Secretion of ACTH and β-endorphin by cultured rat pituitary cells; assay type: cell-based; details: for stimulation of the secretion of ACTH and β-endorphin: in vitro
Protocol: as §1

[7] = test system: isolated rat hind limb; assay: Isolated rat hind limb assay (UI activity)
Protocol: as §1
(§2) In the pentobarbital-anaesthetized dog, the threshold dose of UI for mesenteric vasodilatation, when given close arterially into the cephalic mesenteric A, is between 0.001 and 0.01 μg for both carp UI (1-41) and for the 4-41 fragment of carp UI. Doses of 0.1-0.5 μg of both peptides produce a 50-150% increase in mesenteric flow; accompanying changes in blood pressure are very modest (about 10% decrease). […] Comp. Endocrinol. 45:446-452, 1981.

[8] = test system: mesenteric vascular bed; assay: Blood pressure and mesenteric vasodilatation in the anaesthetized dog; assay type: in vivo; details: for potency of synthetic peptide versus extracted and purified peptide: anaesthetized dog in vivo; for dilatation of vascular beds other than mesenteric / effect on blood pressure: dog; for effect on blood pressure: appears due solely to dilatation of the mesenteric vascular bed; for accompanying decrease in blood pressure / increase in mesenteric flow: pentobarbital-anaesthetized dog, doses of 0.1-0.5 μg
Protocol: as §1, §2

[9] = Comparison of the two extracted and the two synthetic carp peptides (assay not specified); details: synthetic versus extracted peptide
Protocol: as §2

[10] = test system: ACTH and β-END-LI secretion; assay: ACTH and β-END-LI secretion in vivo in several rat preparations
Protocol: as §1

[11] = test system: isolated mesenteric artery strips; assay: Isolated mesenteric artery strips of the rat
[12] = test system: blood pressure; assay: In vivo hypotensive activity in anaesthetized rats; details: rat; vascular dilatation appears less selective
Protocol: as §1

[13] = test system: blood pressure; assay: Lowering of blood pressure (summary statement, species not stated); assay type: in vivo

Compound | dilatation of vascular beds other than mesenteric [3] | effect on blood pressure [3] | potency relative to amunine in stimulating the secretion of ACTH [4] | potency to stimulate ACTH and β-endorphin secretion relative to amunine (CRF) [6] | potency of synthetic peptide versus extracted and purified peptide [7] | potency of synthetic peptide versus extracted and purified peptide [8] | dilatation of vascular beds other than mesenteric [8] | effect on blood pressure [8] | accompanying decrease in blood pressure [8] | increase in mesenteric flow [8] | activity of synthetic peptide as % of the activity of the respective extracted carp UI peptide [9] | potency of synthetic peptide versus extracted and purified peptide [11] | effect on blood pressure [12] | further results
CC[C@H](C)[C@H](NC(=O)[C@@H](NC(=O)[C@H](CC(=O)O)NC(=O)[C@H](CC(C)C)NC(=O)[C@H](CC(C)C)NC(=O)[C@H](CC(C)C)NC(=O)[C@H](CCCNC(=N)N)NC(=O)[C@H](CC(N)=O)NC(=O)[C@H](CC(N)=O)NC(=O)[C@H](C)NC(=O)[C@H](C)NC(=O)[C@H](CCC(N)=O)NC(=O)[C@H](CCC(N)=O)NC(=O)[C@H](CCCCN)NC(=O)[C@H](CCC(=O)O)NC(=O)[C@H](CCCCN)NC(=O)[C@H](CCC(=O)O)NC(=O)[C@H](CCC(N)=O)NC(=O)[C@H](CCCCN)NC(=O)[C@H](CCC(=O)O)NC(=O)[C@@H](NC(=O)[C@H](CCC(=O)O)NC(=O)[C@@H](NC(=O)[C@H](CCSC)NC(=O)[C@H](CCCCN)NC(=O)[C@H](CCCNC(=N)N)NC(=O)[C@H](CC(C)C)NC(=O)[C@H](CC(C)C)NC(=O)[C@H](CCC(=O)O)NC(=O)[C@H](CC(C)C)NC(=O)[C@H](CO)NC(=O)[C@H](CC(C)C)NC(=O)[C@H](CC(=O)O)NC(=O)[C@@H](NC(=O)[C@H](CO)NC(=O)[C@@H](NC(=O)[C@@H]1CCCN1C(=O)[C@@H]1CCCN1C(=O)CNC(=O)[C@@H]1CCC(=O)N1)[C@@H](C)CC)[C@@H](C)CC)[C@@H](C)CC)[C@@H](C)CC)[C@@H](C)O)C(N)=O [Sauvagine] | – | – | – | – | – | – | – | – | – | – | – | – | – | lowering blood pressure [1]: biological activity in lowering blood pressure in mammals; stimulating the secretion of ACTH and β-endorphin [2]: stimulating the secretion of ACTH and β-endorphin
H-PPISIDLTFHLLRNMIEMARNENQREQAGLNRKYLDEV-NH2 [UI 4-41] | neither peptide dilates other vascular beds | modest but sustained depression of the blood pressure | several times more potent than amunine | comparable to amunine (CRF) | equipotent with the extracted and purified peptides | equipotent with the extracted and purified peptides | neither peptide dilates other vascular beds | modest but sustained depression of the blood pressure | about 10% | 50-150% | 123±58% | equipotent with the extracted and purified peptides | more marked fall in blood pressure | biological activity [5]: substantially the same biological activity as the 41-residue polypeptide; stimulation of the secretion of ACTH and β-endorphin [6]: high potency; stimulation of ACTH and β-END-LI secretion in vivo [10]: stimulate ACTH and β-END-LI secretion in vivo
H-NDDPPISIDLTFHLLRNMIEMARNENQREQAGLNRKYLDEV-NH2 [carp UI (1-41)] | neither peptide dilates other vascular beds | modest but sustained depression of the blood pressure | several times more potent than amunine | comparable to amunine (CRF) | equipotent with the extracted and purified peptides | equipotent with the extracted and purified peptides | neither peptide dilates other vascular beds | modest but sustained depression of the blood pressure | about 10% | 50-150% | 119±19% | equipotent with the extracted and purified peptides | more marked fall in blood pressure | lowering of blood pressure [13]: lower blood pressure for an extended time period; stimulation of the secretion of ACTH and β-endorphin ([6]; listed as UI): stimulate ACTH and β-endorphin activities in vitro; stimulation of the secretion of ACTH and β-endorphin ([6]; listed as urotensin I): high potency; stimulation of ACTH and β-END-LI secretion in vivo ([10]; listed as UI): stimulate ACTH and β-endorphin activities in vitro and in vivo; stimulation of ACTH and β-END-LI secretion in vivo ([10]; listed as urotensin I): stimulate ACTH and β-END-LI secretion in vivo
